The record followed here is patent US3984393A, “Aminoglycoside antibiotics” (The Upjohn Company, priority 1975, dated 1976).

The test system of one assay is S. aureus UC 76. Description: standard microplate test in BHI Agar (MIC), S. aureus UC 76. The following applies: Staphylococcus aureus, UC76, 20 h, read-out: Minimum Inhibitory Concentration. The format is cell-based, Staphylococcus aureus. As for the experimental part: (§1) Compounds were also tested in a standard microplate test in Brain Heart Infusion (BHI) Agar, at a concentration of 1 mg/ml. Incubation is at 37° and end points are read at 20 hours. Brain Heart Infusion Agar (supplied by Difco Laboratories, Detroit, Michigan, U.S.A.) has the following composition:
(§2) Compounds (7β), (7α) and (9) were tested again along with compounds (11) and (14β) against a neamine control using the same conditions as given above.

In another assay the test system is D. pneumoniae UC 41. Briefly: standard microplate test in BHI Agar (MIC), D. pneumoniae UC 41. Format: cell-based. The following applies: Streptococcus pneumoniae, UC41, 20 h, D. pneumoniae UC 41, read-out: Minimum Inhibitory Concentration. As to the method:
as §1, §2

In another assay the test system is E. coli UC 45. Description: standard microplate test in BHI Agar (MIC), E. coli UC 45. Format: cell-based. The conditions noted are these: Escherichia coli, UC45, 20 h, E. coli UC 45, read-out: Minimum Inhibitory Concentration. As for the experimental part: as §1, §2
A further assay has as its system S. typhi TG-3. Description: standard microplate test in BHI Agar (MIC), S. typhi TG-3. Format: cell-based. The following applies: Salmonella enterica, 20 h, read-out: Minimum Inhibitory Concentration. As for the experimental part: as §1, §2
In the next assay the test system is S. flexneri UC 143. Description: standard microplate test in BHI Agar (MIC), S. flexneri UC 143. The format is cell-based. The following applies: Shigella flexneri, UC143, 20 h, retest table, neamine control, read-out: Minimum Inhibitory Concentration. As for the experimental part: as §1, §2
The test system of a further assay is S. hemolyticus UC 152. Description: standard microplate test in BHI Agar (MIC), S. hemolyticus UC 152. Format: cell-based, Streptococcus hemolyticus. The conditions noted are these: Streptococcus pyogenes, UC152, 20 h. As for the experimental part: as §1, §2
In a further assay the test system is S. marcescens UC 131. Description: standard microplate test in BHI Agar (MIC), S. marcescens UC 131. Format: cell-based. The conditions noted are these: Serratia marcescens, UC131, 20 h, S. marcescens UC 131, retest table, neamine control, read-out: Minimum Inhibitory Concentration. As for the experimental part: as §1, §2
Another assay deals with B. subtilis. Description: standard disc plate assay, 12.5 mm paper discs (zone of inhibition), B. subtilis. Format: cell-based, Bacillus subtilis. The text has this: (§3) The novel intermediates, disclosed herein, are useful to make novel aminoglycoside antibiotics. These novel aminoglycoside antibiotics are antibacterially active, and, thus, they can be used in various environments to eradicate or control sensitive bacteria. Following are in vitro antibacterial test results for representative compounds of the subject invention. The results were obtained with a standard disc plate assay using 12.5 mm paper discs.

The subject of the next assay is P. mirabilis A-63. Briefly: standard microplate test in BHI Agar (MIC), P. mirabilis A-63. The conditions noted are these: Proteus mirabilis, A63, 20 h, P. mirabilis A-63, retest table, neamine control, read-out: Minimum Inhibitory Concentration. Format: cell-based. As to the method: as §1, §2
The next assay has as its system St. faecalis UC 694. Description: standard microplate test in BHI Agar (MIC), St. faecalis UC 694. Format: cell-based. The following applies: Enterococcus faecalis, UC694, 20 h, read-out: Minimum Inhibitory Concentration. As to the method: as §1, §2
The test system of a further assay is S. aureus UC 570. Description: standard microplate test in BHI Agar (MIC), S. aureus UC 570. Format: cell-based. The following applies: Staphylococcus aureus, UC570, 37°, 20 h, first table, *run on different day, read-out: Minimum Inhibitory Concentration. As to the method: (§4) Compounds were also tested in a standard microplate test in Brain Heart Infusion (BHI) Agar, at a concentration of 1 mg/ml. Incubation is at 37° and end points are read at 20 hours. Brain Heart Infusion Agar (supplied by Difco Laboratories, Detroit, Michigan, U.S.A.) has the following composition: […]

The next assay relates to S. aureus UC 746. Description: standard microplate test in BHI Agar (MIC), S. aureus UC 746. The format is cell-based. The conditions noted are these: Staphylococcus aureus, UC746, 37°, 20 h, first table, *run on different day, read-out: Minimum Inhibitory Concentration. As to the method:
as §4

In another assay the test system is K. pneumoniae UC 58. Briefly: standard microplate test in BHI Agar (MIC), K. pneumoniae UC 58. The format is cell-based. The conditions noted are these: Klebsiella pneumoniae, UC58, 20 h. As for the experimental part: as §1, §2
For another assay, the system named is P. rettgeri UC 339. Briefly: standard microplate test in BHI Agar (MIC), P. rettgeri UC 339. The conditions noted are these: Providencia rettgeri, UC339, 20 h, P. rettgeri UC 339, retest table, neamine control, read-out: Minimum Inhibitory Concentration. The format is cell-based. As to the method:
as §1, §2

The subject of a further assay is P. vulgaris UC 93. Briefly: standard microplate test in BHI Agar (MIC), P. vulgaris UC 93. Format: cell-based. The conditions noted are these: Proteus vulgaris, UC93, 20 h, P. vulgaris UC 93, read-out: Minimum Inhibitory Concentration. As for the experimental part: as §1, §2
The next assay concerns S. schottmuelleri UC 126. Briefly: standard microplate test in BHI Agar (MIC), S. schottmuelleri UC 126. The following applies: 20 h, read-out: Minimum Inhibitory Concentration. The format is cell-based. As for the experimental part: as §1, §2
A further assay deals with Ps. aeruginosa UC 95. Briefly: standard microplate test in BHI Agar (MIC), Ps. aeruginosa UC 95. The format is cell-based. The following applies: Pseudomonas aeruginosa, UC95, 20 h, Ps. aeruginosa UC 95, read-out: Minimum Inhibitory Concentration. As for the experimental part: as §1, §2
A further assay deals with B. cereus. Description: standard disc plate assay, 12.5 mm paper discs (zone of inhibition), B. cereus. The format is cell-based, Bacillus cereus. The following applies: for zone of inhibition at 10000 µg/mL: 10 mg/ml; for active against Bacillus cereus: conclusion in words from the above results.
Description: as §3

For a further assay, the system named is P. morgani UC 3186. Briefly: standard microplate test in BHI Agar (MIC), P. morgani UC 3186. The format is cell-based. The following applies: 20 h, P. morgani UC 3186, retest table, neamine control, read-out: Minimum Inhibitory Concentration. As to the method: as §1, §2
[1] abbreviates: BHI agar, 37°, 20 h, first table, *run on different day.
[2] abbreviates: retest table, group (7β), (14β), neamine control.
Where [3] appears, read: retest table, group (9), (11), (7α), neamine control.

Values after ≈ are worked out from the molar mass of the structure shown. Where two headings read alike, the source gives them in different places.

As to `NC[C@H]1O[C@H](O[C@H]2[C@H](O)[C@@H](O[C@@H]3O[C@H](CO)[C@@H](O)[C@H]3O)[C@H](N)C[C@@H]2N)[C@H](N)[C@@H](O)[C@@H]1O` [(7β), 6-O-(β-D-Ribofuranosyl)neamine], the MIC was 1000 µg/mL (≈ 2200 µM) with S. aureus UC 76 (S. aureus 284 UC 76, BHI agar, 37°, 20 h, first table, *run on different day); 500 µg/mL (≈ 1100 µM) in the assay on S. aureus UC 76 (S. aureus UC 76, retest table, group (7β), (14β), neamine control); greater than 1000 µg/mL in the assay on D. pneumoniae UC 41 (setting [1]); 1000 µg/mL (≈ 2200 µM) in the assay with D. pneumoniae UC 41 (setting [2]); 500 µg/mL (≈ 1100 µM) in the assay on E. coli UC 45 (setting [1]); 1000 µg/mL (≈ 2200 µM) in the assay with E. coli UC 45 (setting [2]). Besides, the MIC amounted to 1000 µg/mL (≈ 2200 µM) with S. typhi TG-3; 1000 µg/mL (≈ 2200 µM) in the assay on S. flexneri UC 143 (group (7β), (14β)); 62.5 µg/mL (≈ 138 µM) with S. hemolyticus UC 152 (read-out: Minimum Inhibitory Concentration, S. hemolyticus UC 152, BHI agar, 37°, 20 h, first table, *run on different day); 250 µg/mL (≈ 550 µM) with S. hemolyticus UC 152 (S. hemolyticus UC 152, retest table, group (7β), (14β), neamine control, read-out: Minimum Inhibitory Concentration); 1000 µg/mL (≈ 2200 µM) in the assay on S. marcescens UC 131 (group (7β), (14β)); 1000 µg/mL (≈ 2200 µM) in the assay with P. mirabilis A-63 (group (7β), (14β)). Moreover, the MIC is 1000 µg/mL (≈ 2200 µM) with St. faecalis UC 694 (S. faecalis UC 694, retest table, group (7β), (14β), neamine control); greater than 1000 µg/mL with St. faecalis UC 694 (St. faecalis UC 694, BHI agar, 37°, 20 h, first table, *run on different day); 1000 µg/mL (≈ 2200 µM) with S. aureus UC 570; 500 µg/mL (≈ 1100 µM) with S. aureus UC 746; 62.5 µg/mL (≈ 138 µM) in the assay on K. pneumoniae UC 58 (read-out: Minimum Inhibitory Concentration, K. pneumoniae UC 58, BHI agar, 37°, 20 h, first table, *run on different day); 250 µg/mL (≈ 550 µM) in the assay with K. pneumoniae UC 58 (K. pneumoniae UC 58, retest table, group (7β), (14β), neamine control, read-out: Minimum Inhibitory Concentration). Also, the MIC was 1000 µg/mL (≈ 2200 µM) in the assay with P. rettgeri UC 339 (group (7β), (14β)); 500 µg/mL (≈ 1100 µM) with P. vulgaris UC 93 (setting [1]); 1000 µg/mL (≈ 2200 µM) with P. vulgaris UC 93 (setting [2]); 250 µg/mL (≈ 550 µM) in the assay on S. schottmuelleri UC 126 (BHI agar, 37°, first table, *run on different day); 500 µg/mL (≈ 1100 µM) in the assay on S. schottmuelleri UC 126 (setting [2]); greater than 1000 µg/mL in the assay on Ps. aeruginosa UC 95 (setting [1]). Besides, the MIC is 1000 µg/mL (≈ 2200 µM) in the assay on Ps. aeruginosa UC 95 (setting [2]) and 1000 µg/mL (≈ 2200 µM) with P. morgani UC 3186 (group (7β), (14β)). The zone of inhibition – broadly, the extent of the growth-free halo in a diffusion test – at 5000 µg/mL with B. subtilis (Bacillus subtilis, B. subtilis, 5 mg/ml) was determined as 35 mm; in the assay with B. cereus (Bacillus cereus, B. cereus, 5 mg/ml) it was 25 mm. In addition, the zone of inhibition at 10000 µg/mL turned out to be 38 mm in the assay with B. subtilis (Bacillus subtilis, B. subtilis, 10 mg/ml) and 34 mm in the assay on B. cereus (Bacillus cereus, B. cereus). Also, the “active against Bacillus subtilis” value in the assay on B. subtilis (conclusion in words from the above results) is given as “active”. Besides, the “active against Bacillus cereus” value in the assay on B. cereus is “active”.
`NC[C@H]1O[C@H](O[C@H]2[C@H](O)[C@@H](O)[C@H](N)C[C@@H]2N)[C@H](N)[C@@H](O[C@@H]2O[C@H](CO)[C@@H](O)[C@H](O)[C@H]2O)[C@@H]1O` [(11), 3'-O-(β-D-glucopyranosyl)neamine]: the MIC in the assay on S. aureus UC 76 (S. aureus UC 76, retest table, group (9), (11), (7α), neamine control) was determined as 1000 µg/mL (≈ 2060 µM); in the assay on D. pneumoniae UC 41 (setting [3]) it was 1000 µg/mL (≈ 2060 µM); with E. coli UC 45 (setting [3]), 1000 µg/mL (≈ 2060 µM); with S. typhi TG-3, 1000 µg/mL (≈ 2060 µM); in the assay on S. flexneri UC 143 (group (9), (11), (7α)), 1000 µg/mL (≈ 2060 µM); in the assay with S. hemolyticus UC 152 (S. hemolyticus UC 152, retest table, group (9), (11), (7α), neamine control, read-out: Minimum Inhibitory Concentration), 1000 µg/mL (≈ 2060 µM). Moreover, the MIC in the assay with S. marcescens UC 131 (group (9), (11), (7α)) was determined as 1000 µg/mL (≈ 2060 µM); with P. mirabilis A-63 (group (9), (11), (7α)), 1000 µg/mL (≈ 2060 µM); in the assay with St. faecalis UC 694 (S. faecalis UC 694, retest table, group (9), (11), (7α), neamine control), 1000 µg/mL (≈ 2060 µM); with K. pneumoniae UC 58 (K. pneumoniae UC 58, retest table, group (9), (11), (7α), neamine control, read-out: Minimum Inhibitory Concentration), 1000 µg/mL (≈ 2060 µM); in the assay with P. rettgeri UC 339 (group (9), (11), (7α)), 1000 µg/mL (≈ 2060 µM); with P. vulgaris UC 93 (setting [3]), 1000 µg/mL (≈ 2060 µM). Further, the MIC was 1000 µg/mL (≈ 2060 µM) in the assay with Ps. aeruginosa UC 95 (setting [3]) and 1000 µg/mL (≈ 2060 µM) in the assay with P. morgani UC 3186 (group (9), (11), (7α)). In the assay on B. cereus (Bacillus cereus, B. cereus), this compound yielded a zone of inhibition at 10000 µg/mL of 16 mm. In addition, the “active against Bacillus cereus” value in the assay with B. cereus is given as “active”.
